{"source": "the NIST ThermoML archive (doi:10.1021/je700632z)", "conditions": "101.33 kPa, Liquid, Capillary tube (Ostwald / Ubbelohde) method", "note": "Numbers after ± are expanded uncertainties.", "data": [{"smiles": "FC(F)(F)C(F)(F)C(F)(F)C(F)(F)C(F)(F)C(F)(F)C(F)(F)C(F)(F)Br", "note": "[1-bromoperfluorooctane]", "values": [{"measurement": "kinematic viscosity", "setting": "298.15 K", "value": "1.065e-06 ± 1e-08", "unit": "m2/s"}, {"measurement": "kinematic viscosity", "setting": "303.15 K", "value": "9.96e-07 ± 1e-08", "unit": "m2/s"}, {"measurement": "kinematic viscosity", "setting": "308.15 K", "value": "9.05e-07 ± 1.1e-08", "unit": "m2/s"}, {"measurement": "kinematic viscosity", "setting": "313.15 K", "value": "8.37e-07 ± 6e-09", "unit": "m2/s"}, {"measurement": "kinematic viscosity", "setting": "318.15 K", "value": "7.51e-07 ± 1.1e-08", "unit": "m2/s"}]}, {"smiles": "FC1(F)C(F)(F)C(F)(F)C2(F)C(F)(F)C(F)(F)C(F)(F)C(F)(F)C2(F)C1(F)F", "note": "(stereo not given) [perfluorodecalin]", "values": [{"measurement": "kinematic viscosity", "setting": "298.15 K", "value": "2.803e-06 ± 1.6e-08", "unit": "m2/s"}, {"measurement": "kinematic viscosity", "setting": "303.15 K", "value": "2.448e-06 ± 1.4e-08", "unit": "m2/s"}, {"measurement": "kinematic viscosity", "setting": "308.15 K", "value": "2.159e-06 ± 1.4e-08", "unit": "m2/s"}, {"measurement": "kinematic viscosity", "setting": "313.15 K", "value": "1.917e-06 ± 1.1e-08", "unit": "m2/s"}, {"measurement": "kinematic viscosity", "setting": "318.15 K", "value": "1.709e-06 ± 1e-08", "unit": "m2/s"}]}, {"smiles": "FC(F)(F)C1(F)C(F)(F)C(F)(F)C(F)(F)C(F)(F)C1(F)F", "note": "[perfluoro(methylcyclohexane)]", "values": [{"measurement": "kinematic viscosity", "setting": "298.15 K", "value": "9.31e-07 ± 8e-09", "unit": "m2/s"}, {"measurement": "kinematic viscosity", "setting": "303.15 K", "value": "8.43e-07 ± 9e-09", "unit": "m2/s"}, {"measurement": "kinematic viscosity", "setting": "308.15 K", "value": "7.72e-07 ± 8e-09", "unit": "m2/s"}, {"measurement": "kinematic viscosity", "setting": "313.15 K", "value": "7.22e-07 ± 9e-09", "unit": "m2/s"}, {"measurement": "kinematic viscosity", "setting": "318.15 K", "value": "6.84e-07 ± 9e-09", "unit": "m2/s"}]}, {"smiles": "Fc1c(F)c(F)c(F)c(F)c1F", "note": "[hexafluorobenzene]", "values": [{"measurement": "kinematic viscosity", "setting": "298.15 K", "value": "5.81e-07 ± 9e-09", "unit": "m2/s"}, {"measurement": "kinematic viscosity", "setting": "303.15 K", "value": "5.35e-07 ± 1.1e-08", "unit": "m2/s"}, {"measurement": "kinematic viscosity", "setting": "308.15 K", "value": "4.91e-07 ± 4e-09", "unit": "m2/s"}, {"measurement": "kinematic viscosity", "setting": "313.15 K", "value": "4.5e-07 ± 7e-09", "unit": "m2/s"}, {"measurement": "kinematic viscosity", "setting": "318.15 K", "value": "4.23e-07 ± 9e-09", "unit": "m2/s"}]}, {"smiles": "FC(F)(F)C(F)(F)C(F)(F)C(F)(F)C(F)(F)C(F)(F)F", "note": "[perfluorohexane]", "values": [{"measurement": "kinematic viscosity", "setting": "298.15 K", "value": "4.17e-07 ± 5e-09", "unit": "m2/s"}, {"measurement": "kinematic viscosity", "setting": "303.15 K", "value": "3.97e-07 ± 9e-09", "unit": "m2/s"}, {"measurement": "kinematic viscosity", "setting": "308.15 K", "value": "3.72e-07 ± 4e-09", "unit": "m2/s"}, {"measurement": "kinematic viscosity", "setting": "313.15 K", "value": "3.57e-07 ± 5e-09", "unit": "m2/s"}, {"measurement": "kinematic viscosity", "setting": "318.15 K", "value": "3.43e-07 ± 4e-09", "unit": "m2/s"}]}, {"smiles": "FC(F)(F)C(F)(F)C(F)(F)C(F)(F)C(F)(F)C(F)(F)C(F)(F)F", "note": "[hexadecafluoroheptane]", "values": [{"measurement": "kinematic viscosity", "setting": "298.15 K", "value": "5.43e-07 ± 4e-09", "unit": "m2/s"}, {"measurement": "kinematic viscosity", "setting": "303.15 K", "value": "5.12e-07 ± 9e-09", "unit": "m2/s"}, {"measurement": "kinematic viscosity", "setting": "308.15 K", "value": "4.82e-07 ± 1.1e-08", "unit": "m2/s"}, {"measurement": "kinematic viscosity", "setting": "313.15 K", "value": "4.48e-07 ± 7e-09", "unit": "m2/s"}, {"measurement": "kinematic viscosity", "setting": "318.15 K", "value": "4.34e-07 ± 7e-09", "unit": "m2/s"}]}, {"smiles": "Fc1c(F)c(F)c(C(F)(F)F)c(F)c1F", "note": "[octafluorotoluene]", "values": [{"measurement": "kinematic viscosity", "setting": "298.15 K", "value": "5.88e-07 ± 4e-09", "unit": "m2/s"}, {"measurement": "kinematic viscosity", "setting": "303.15 K", "value": "5.51e-07 ± 5e-09", "unit": "m2/s"}, {"measurement": "kinematic viscosity", "setting": "308.15 K", "value": "5.16e-07 ± 4e-09", "unit": "m2/s"}, {"measurement": "kinematic viscosity", "setting": "313.15 K", "value": "4.84e-07 ± 4e-09", "unit": "m2/s"}, {"measurement": "kinematic viscosity", "setting": "318.15 K", "value": "4.57e-07 ± 4e-09", "unit": "m2/s"}]}, {"smiles": "FC(F)(F)C(F)(F)C(F)(F)C(F)(F)C(F)(F)C(F)(F)C(F)(F)C(F)(F)F", "note": "[octadecafluorooctane]", "values": [{"measurement": "kinematic viscosity", "setting": "298.15 K", "value": "7.11e-07 ± 7.4e-09", "unit": "m2/s"}, {"measurement": "kinematic viscosity", "setting": "303.15 K", "value": "6.56e-07 ± 6.9e-09", "unit": "m2/s"}, {"measurement": "kinematic viscosity", "setting": "308.15 K", "value": "6.08e-07 ± 6.4e-09", "unit": "m2/s"}, {"measurement": "kinematic viscosity", "setting": "313.15 K", "value": "5.65e-07 ± 6e-09", "unit": "m2/s"}, {"measurement": "kinematic viscosity", "setting": "318.15 K", "value": "5.27e-07 ± 5.6e-09", "unit": "m2/s"}]}, {"smiles": "FC(F)(F)C(F)(F)C(F)(F)C(F)(F)C(F)(F)C(F)(F)C(F)(F)C(F)(F)C(F)(F)F", "note": "[eicosafluorononane]", "values": [{"measurement": "kinematic viscosity", "setting": "298.15 K", "value": "1e-06 ± 1.2e-08", "unit": "m2/s"}, {"measurement": "kinematic viscosity", "setting": "303.15 K", "value": "9.11e-07 ± 9e-09", "unit": "m2/s"}, {"measurement": "kinematic viscosity", "setting": "308.15 K", "value": "8.33e-07 ± 8e-09", "unit": "m2/s"}, {"measurement": "kinematic viscosity", "setting": "313.15 K", "value": "7.73e-07 ± 6e-09", "unit": "m2/s"}, {"measurement": "kinematic viscosity", "setting": "318.15 K", "value": "7.14e-07 ± 7e-09", "unit": "m2/s"}]}]}
